Data published in US6517838B1, “Decorin binding protein essential peptides and methods of use” (The Texas A&M University System, priority 2000, dated 2003).
Where “and” joins values, the source holds several entries; their conditions need not be identical. Equal values may be shown once. Read-outs that look alike come from different tables or passages of the source. Ends that are not written are not given here.

T1: decorin from bovine fetal skin (bovine), P21793
T1 chain: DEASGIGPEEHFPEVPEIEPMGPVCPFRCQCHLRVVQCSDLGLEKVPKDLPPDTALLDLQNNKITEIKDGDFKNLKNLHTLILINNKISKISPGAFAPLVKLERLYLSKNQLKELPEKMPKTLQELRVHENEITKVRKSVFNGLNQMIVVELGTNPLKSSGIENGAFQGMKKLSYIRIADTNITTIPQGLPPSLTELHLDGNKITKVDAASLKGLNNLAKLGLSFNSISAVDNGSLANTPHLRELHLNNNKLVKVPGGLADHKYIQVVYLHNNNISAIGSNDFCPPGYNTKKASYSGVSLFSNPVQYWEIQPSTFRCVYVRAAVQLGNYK

B1: K-mod: DbpA with lysine residues chemically modified by DL-glyceraldehyde and sodium cyanoborohydride (protein)
chain: ATKIKLESSAKAIVDEIDAIKKKAASMGVNFDAFKDKKTGSGVSENPFILEAKVRATTVAEKFVIAIEEEATKLKETGSSGEFSAMYDLMFEVSKPLQELGIQEMTKTVSMAAEENPPTTAQGVLEIAKKMREKLQRVHKKNQDTLKKKNTEDSTAKS
modifications: left off: small tags and cut ends
notes: DbpA with lysine residues chemically modified by DL-glyceraldehyde and sodium cyanoborohydride

What was measured:
[1] = test system: B. burgdorferi strain B31; assay: Arthritis assessment, histopathology of hind tibiotarsal joints of immunized infected mice; assay type: in vivo; details: for Mean Arthritis Rating: severity score 0-4 by neutrophil infiltrate; for Mean Arthritis Rating / % Incidence (arthritis): day 14 post infection; for % Incidence (arthritis): immunized mice, tibiotarsal joint histology
Experimental: (§1) Mice were immunized with recombinant DbpA (SEQ ID 1), P2 (SEQ ID 3), P4 (SEQ ID 5), P5 (SEQ ID 6), P4/P5 (SEQ ID 5/SEQ ID 6), P9 (SEQ ID 10), or the corresponding lysine modified counterparts (P2 Mod, P4 Mod, P5 Mod or P9 Mod) using the immunization schedule established by Hanson (11). Briefly, mice were immunized with 20 μg of protein or peptide in complete Freund's adjuvant (CFA) (Week 1), boosted at week 4 with the same dose in incomplete Freund's adjuvant (IFA) and infected at week 6.
Mice (15 mice/group) were anesthetized with Metofane (methoxyflurane; Pitman-Moore, Mundelein, Ill.) and 10 mice/ group were infected i.d. at the base of the tail with 10^4 Borrelia in 100 μl of media 6 six weeks after the first immunization. The remaining 5 mice/group were tested for a DTH response to recombinant DbpA. Following infection, mice were bled 7 and 14 days postinfection. Serum was collected for antibody analysis and blood cultured for the detection of live spirochetes by inoculating 5 ml of BSK II medium with 50 μl of blood from each infected mouse and cultured for 2 weeks at 34° C. as described above. Also on day 14 postinfection, mice were sacrificed and one hind tibiotarsal joint, heart, bladder, and a 3 mm skin biopsy from the ear were aseptically removed and inoculated into separate tubes containing 6 ml of BSK II medium with antibiotics (50 μg/ml rifampacin and 100 μg/ml phosphomycin (Sigma), and incubated for 2 weeks at 34° C. as described above. Evidence of arthritis was determined by histopathological examination of formalin-fixed hind tibiotarsal joint samples.
Evidence of arthritis was determined by histopathological examination of formalin-fixed hind tibiotarsal joint samples. Tissues for histological examination were embedded in paraffin and stained with hematoxylin and eosin. All sections were examined without knowledge of the vaccination status of the mouse. Arthritis was scored by one of two methods. A positive/negative assessment was used, as well as assignment of an arthritis severity score. Joints were scored according to the levels of infiltrate (neutrophils) as follows: 0, no arthritis, 1, minimal or rare (≦10% tissue involvement); 2, mild (10-20%); […]; and 4, severe (>50%).
A similar trend was also observed for joints examined for arthritis (Table I). DbpA-(SEQ ID 1), P4-(SEQ ID 5), and P5-(SEQ ID 6) immunized mice had the lowest arthritis ratings (0.2, 1.2, and 0.4, respectively) and lowest arthritis incidence (20, 60, and 20%, respectively).

decorin [2] = biological target: T2, decorin (Bos taurus, UniProt P21793); assay: Inhibition ELISA: decorin attachment to DbpA-coated wells; assay type: binding, bovine; details: 5 μg inhibitor pre-incubated with biotin-conjugated decorin, FIG. 3
T2 construct: Decorin from bovine fetal skin was purified and stored in 4 M guanidine hydrochloride; from tissue; host or cells: decorin from bovine fetal skin; DbpA made in E. coli JM101
Experimental: Immulon-1 microtiter plate wells were coated with 0.4 μg of DbpA in 50 μl of PBS over night at 4° C. The wells were washed and then blocked as described above. During the blocking step, 0.12 μg/ml of biotin-conjugated decorin was pre-incubated at 37° C. with 5 μg of each DbpA-derived peptide or DbpA. After washing, 100 μl of the biotin conjugated decorin/inhibitor mixture was added to the wells and incubated for 1 h. After washing, the wells were incubated with AP-conjugated streptavidin and developed as described above.
(§2) Decorin from bovine fetal skin was purified and stored in 4 M guanidine hydrochloride at −80° C. and dialyzed extensively against PBS before use. Decorin was labeled with digoxigenin-3-O-methylcarbonyl-ε-aminocaproic acid-N-hydroxy-succinimide ester (digoxigenin) (Boehringer Mannheim, Indianapolis. Ind.) according to the manufacturer's instructions and stored at −20° C. To label decorin with biotin, 7.5 mg of NHS-LC-Biotin (sulfosuccinimidyl-6-(biotinamido) hexanoate) (Pierce, Rockford, Ill.) was dissolved in 100 μl of dimethyl sulfoxide and combined with 0.5 mg of decorin and 0.5 ml of 0.2 M sodium borate (pH 8.0) in a total reaction volume of 1 ml.
Confirmation of the critical binding sites in DbpA for decorin and of the biophysical stability of these peptides was tested in an inhibition ELISA. DbpA, peptides P2-P9, chemically modified peptides P2 Mod-P9 Mod, and an irrelevant peptide from the Staphylococcus aureus collagen-binding adhesin, CNA4 (OSKITVDNTKNTIDVTIQG) (SEQ ID 36) were used as inhibitors of decorin attachment to DbpA-coated wells.

recombinant DbpA = assay: Delayed-type hypersensitivity (DTH) to DbpA, footpad swelling in immunized mice; assay type: in vivo, B. burgdorferi; details: C3H/HeJ mice immunized with 20 μg, challenged with 2 μg recombinant DbpA in footpad, 24 h
Experimental: as §1
Native C3H/HeJ mice immunized with DbpA (SEQ ID 1), P2 (SEQ ID 3), P4 (SEQ ID 5), P5 (SEQ ID 6), P4/P5 (SEQ ID 5/SEQ ID 6), P9 (SEQ ID 10), or the corresponding lysine modified counterparts (P2 Mod, P4 Mod, P5 Mod or P9 Mod) were challenged with 2 μg of recombinant DbpA in PBS (50 μl/footpad) 7 weeks after the initial immunization. All footpads were measured before and 24 h after challenge using a spring-loaded micrometer (Mitutoyo, Tokyo, Japan) as described (23). The mice were anesthetized as described above during footpad measurements and injections. Swelling was determined by subtracting the footpad measurements before challenge from those taken 24 h after challenge.
DTH is an in vivo method of testing T cell-dependent immune responses that are manifested by inflammation at the site of antigenic challenge. Mice immunized with DbpA (SEQ ID 1), P2 (SEQ ID 3), P4 (SEQ ID 5), P5 (SEQ ID 6), P4/P5 (SEQ ID 5/SEQ ID 6) combined, P9 (SEQ ID 10), or the corresponding lysine-modified peptides were challenged in the footpad with 2 μg of recombinant DbpA (SEQ ID 1). Footpad measurements were taken before and after challenge as described above. DbpA (SEQ ID 1)-immunized mice developed a significant footpad swelling of 53.3±3.5 (not shown) compared to mice immunized with adjuvant alone or naive mice receiving only the DbpA (SEQ ID 1) challenge. Peptide-immunized mice, with the exception of P2 (SEQ ID 3), also developed a significant DTH response to DbpA (SEQ ID 1) compared to the lysine-modified controls.

[3] = test system: B. burgdorferi strain B31; assay: Joint cultures for spirochetes after infection of immunized mice; assay type: in vivo; details: immunized C3H/HeJ mice, joints 14 days post infection
Experimental: as §1
Low-passage B. burgdorferi strain B31 (passage 5) was used in this study and cultured in BSK II (Barbour-Stoenner-Kelly) medium at 34° C. (22). Bacterial cultures were incubated in CO2-enriched atmosphere in a GasPak chamber (BBL, Baltimore, Md.) containing BBL GasPak Plus envelopes and a GasPak anaerobic indicator (Beckton dickinson, Cockeysville, Md.) until the cells reached log phase. Bacterial counts were determined using dark field microscopy and a Petroff-Hausser chamber.
Mice (15 mice/group) were anesthetized with Metofane (methoxyflurane; Pitman-Moore, Mundelein, Ill.) and 10 mice/ group were infected i.d. at the base of the tail with 10^4 Borrelia in 100 μl of media 6 six weeks after the first immunization. The remaining 5 mice/group were tested for a DTH response to recombinant DbpA. Following infection, mice were bled 7 and 14 days postinfection. […]

[4] = biological target: T1, decorin from bovine fetal skin …; assay: inhibition ELISA: biotin-conjugated decorin pre-incubated with 5 ug peptide, added to DbpA-coated wells
[5] = biological target: T1, decorin from bovine fetal skin …; assay: as above
decorin [6] = biological target: T2, decorin; assay: Western ligand blot with digoxigenin-labeled decorin; assay type: binding, bovine; details: SDS-PAGE reducing, probed with digoxigenin-labeled decorin
Experimental: as §2
Proteins (purified DbpA, DbpA site-directed mutants and OspC) were subjected to SDS-PAGE (reducing conditions) and probed with rabbit anti-DbpA polyclonal sera (R625) or with digoxigenin-labeled decorin.
Further, the side chains of lysine residues were chemically modified and the binding properties of the resulting protein examined. […] Both forms of DbpA migrated as two bands, monomers at 20 and 21 kDa and dimers at 40 and 42 kDa for DbpA and chemically modified DbpA (K-mod), respectively. The decorin binding activity of the DbpA and lysine-modified DbpA was examined in a Western ligand blot assay (FIG. 6B).

decorin [7] = biological target: T2, decorin; assay: Binding of biotin-conjugated decorin to protein-coated microtiter wells; parameters: species or system bovine; details: 0.4 μg protein coated, 0.12 μg/ml biotin-decorin, compared to wild-type DbpA
Experimental: as §2
Immulon-1 microtiter plate wells (Dynatech Labs, Chantilly, Va.) were coated with 0.4 μg of DbpA (SEQ ID 1), DbpA mutants and K-mod in 50 μl PBS overnight at 4° C. The wells were washed and then blocked with 200 μl of Super Block (Pierce) for 1 h. After washing, 0.12 μg/ml of biotin-conjugated decorin in 100 μl of Super Block was added to the wells and incubated for 1 h. After washing, 100 μl of a 1:10,000 dilution of alkaline phosphatase (AP)-conjugated streptavidin (1 U/ml) (Boehringer Mannheim) was added and incubated for 1 h. […] The absorbance was determined in a Microplate Reader (Molecular Devices, Menlo Park, Calif.). […]

Row | Molecule | Mean Arthritis Rating [1] | inhibition of decorin attachment to DbpA-coated wells (decorin [2]) | DTH response to DbpA (in words) (recombinant DbpA) | % Incidence (arthritis) [1] [%] | further results
1 | P2: overlapping synthetic 25 amino acid peptide of recombinant DbpA, contains a cystine residue (LLISCGLTGATKIKLESSAKAIVD) [Peptide P2] | 1.4 | 44% and 42% | no response |  | 
2 | P4 Mod: lysine modified counterpart of P4 (DAFKDKKTGSGVSENPFILEAKVRA; also: chemically modified lysines) | 2.0 |  |  | 2.0 | 
3 | P4: synthetic 25 amino acid DbpA peptide that maps to the K82 region (DAFKDKKTGSGVSENPFILEAKVRA) [Peptide P4] | 1.2 | 64% | response greater than that of control groups but with less intensity | 60 | 
4 | P5 Mod: lysine modified counterpart of P5 (AKVRATTVAEKFVIAIEEEATKLKE; also: chemically modified lysines) | 3.2 |  |  | 100 | 
5 | P5: synthetic 25 amino acid DbpA peptide that maps to the K82 region (AKVRATTVAEKFVIAIEEEATKLKE) [Peptide P5] | 0.4 | 92% | significant responses | 20 | positive joint cultures [3]: 60%; arthritis incidence and severity (in words) ([1]; immunized infected mice): lowest
6 | P9 Mod: lysine modified counterpart of P9 (REKLQRVHKKNQDTLKKKNTEDSTAKS; also: chemically modified lysines) | 2.0 |  |  | 80 | 
7 | P9: synthetic 25 amino acid DbpA peptide containing K163 and K170 (REKLQRVHKKNQDTLKKKNTEDSTAKS) [Peptide P9] | 1.25 | 42% and 43% | response greater than that of control groups but with less intensity |  | 
8 | REKLQRVHKKNQDTLKKKNTEDSTAKS (modifications not checked) [DbpA-derived synthetic peptide P9] |  |  |  |  | inhibition of decorin attachment to DbpA-coated wells [4]: 42%; inhibition of decorin attachment to DbpA-coated wells [5]: 43%
9 | B1 |  |  |  |  | decorin binding in Western ligand blot (decorin [6]): loss of decorin binding; binding of biotin-conjugated decorin to coated microtiter wells (decorin [7]): essentially unable to support the binding of decorin
10 | AKVRATTVAEKFVIAIEEEATKLKE (modifications not checked) [DbpA-derived synthetic peptide P5] |  |  |  |  | inhibition of decorin attachment to DbpA-coated wells [4]: 92%
11 | DAFKDKKTGSGVSENPFILEAKVRA (modifications not checked) [DbpA-derived synthetic peptide P4] |  |  |  |  | inhibition of decorin attachment to DbpA-coated wells [4]: 64%
